These results are taken from patent US9598410B2, “Substituted 4,5,6,7-tetrahydro-1H-pyrazolo[4,3-C]pyridines, their use as medicament, and pharmaceutical preparations comprising them” (SANOFI, priority 2011, dated 2017).

In the assay the target is Human TASK-1 channels (Homo sapiens (Human), UniProt O14649). The experiment in a line: Activity on the TASK-1 channel in Xenopus oocytes (two-microelectrode voltage clamp). The class given is cell-based. The note with it: percentage inhibition of TASK-1 control current. How it is done: Human TASK-1 channels were expressed in Xenopus oocytes. […] Subsequently, TASK-1-encoding RNA synthesized in vitro was injected into oocytes. […] Oocytes were continuously superfused with ND96 buffer containing: NaCl 96 mM, KCl 2 mM, CaCl2 1.8 mM, MgCl2 1 mM, HEPES 5 mM (pH adjusted to 7.4 with NaOH). All experiments were performed at room temperature.
Human TASK-1 channels, sequence (O14649 whole entry, the tested form may be a part): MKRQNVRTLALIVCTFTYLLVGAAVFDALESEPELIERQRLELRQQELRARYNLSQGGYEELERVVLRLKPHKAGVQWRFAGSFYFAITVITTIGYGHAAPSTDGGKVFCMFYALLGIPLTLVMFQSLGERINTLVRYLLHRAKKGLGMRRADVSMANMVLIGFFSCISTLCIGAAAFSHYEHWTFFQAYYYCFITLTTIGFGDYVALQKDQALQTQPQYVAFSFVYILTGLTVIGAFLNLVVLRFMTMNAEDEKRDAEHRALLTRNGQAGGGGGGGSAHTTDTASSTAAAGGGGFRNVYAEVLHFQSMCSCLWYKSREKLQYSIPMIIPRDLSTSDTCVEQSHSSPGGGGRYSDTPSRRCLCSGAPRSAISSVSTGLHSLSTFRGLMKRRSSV
IC50 values were obtained by fitting the data to the general dose-response equation.

Each structure is given as a SMILES string.

On to `COc1ccnc(Cn2nc(-c3cccc(C(F)(F)F)c3)c3c2CCN(C(C)=O)C3)c1` [Example 6q, 1-[1-(4-Methoxy-pyridin-2-ylmethyl)-3-(3-trifluoromethyl-phenyl)-1,4,6,7-tetrahydro-pyrazolo[4,3-c]pyridin-5-yl]-ethanone], for which the “Inhibition (%) at 5 μM” value worked out at 70%.
